These results are taken from patent US5744298A, “DNA sequences which encode immunoreactive HCMV-specific peptides” (Behringwerke Aktiengesellschaft, priority 1991, dated 1998).

Where no end group is shown, it is not given here.

The test system of one experiment is CMV IgG-positive sera. The experiment can be described thus: ELISA of peptide-coated microtiter plates with CMV IgG-positive human sera (localization of epitopes). The experiment is classed as binding. The note with it: plate coated with 2.5 μg peptide per ml, serum dilution 1:2; for Reactivity (individual reactivities of particularly reactive peptides with the assayed group of CMV IgG-positive sera, in percent): Table 3. How it is done: A microtiter plate with 96 wells was coated with a synthesized peptide. To do this, a solution of 2.5 μg of peptide per ml of carbonate buffer was made up and introduced in 100 μl portions into the wells for the coating. The peptides were adsorbed onto the surfaces at 4° C. overnight and, after removal of the peptide solution, the wells were washed several times with washing buffer (50 mM Tris, pH 7.2, 10 mM EDTA, 0.2% Tween 20). Then individual human serum samples in a 1:2 dilution were introduced and incubated at 37° C. for 1 hour. After another washing step, the conjugate antibody specific for human IgG antibodies or human IgM antibodies and labeled with peroxidase was added and the mixture was incubated at room temperature for 0.5 hour. The reaction was subsequently stopped by adding 0.5M sulfuric acid and extinction of the individual samples was measured at a wavelength of 450/650 nm in a photometer.
To test the immunogenicity, peptides of various length from the complete amino-acid sequence region from 718 to 880 of the HCMV protein pp150 (Tab. 2 and 3) were synthesized as described in Example 1. Subsequently, as in Example 2, the microtiter plates were coated with the synthesized peptides, and the immunological reactivity was assayed. […] The three immunologically reactive peptides have the following sequences: […]
On the technique in general: ELISA stands for enzyme-linked immunosorbent assay.

Experiment [1] relates to monoclonal antibody 87-55/02. The experiment can be described thus: Reaction of the monoclonal antibody 87-55/02 with peptide epitopes (ELISA, immunoblot). The experiment is classed as binding. The settings on record: measured as immunoblot and ELISA reactivity. The text has this:
It was concluded from the method for selecting the monoclonal antibody that the identified epitope must have a very important structure which is not even destroyed by denaturation of the complete protein. This monoclonal antibody correspondingly reacts both with the synthesized peptide 2.7 (SEQ ID NO:26) and with the recombinant protein XP1 (SEQ ID NO:33) and the pp150 protein of HCMV.

On to “phe glu gln pro thr leu thr phe gly ala gly val asn val pro ala gly ala gly ala ala ile leu thr pro thr pro val asn pro ser thr ala pro ala pro ala (FEQPTTLTFGAGVNVPAGAGAAILTPTPVNPSTAPAPA) [Peptide 1.4]”, for which, in the experiment on CMV IgG-positive sera, the “Reactivity (individual reactivities of particularly reactive peptides with the assayed group of CMV IgG-positive sera, in percent)” value turned out to be 90%.

Regarding “pro thr leu thr phe gly ala gly val asn val pro ala gly ala gly ala ala ile leu thr pro thr pro val asn pro ser thr ala pro ala pro ala pro NH2 (PTLTFGAGVNVPAGAGAAILTPTPVNPSTAPAPAP-NH2) [Peptide 1.6]”, the “Reactivity (individual reactivities of the synthetic pXP1 segments with the assayed group of CMV IgG-positive sera, in percent)” value in the experiment on CMV IgG-positive sera (Table 2) turned out to be 90%. Moreover, the “Reactivity (individual reactivities of particularly reactive peptides with the assayed group of CMV IgG-positive sera, in percent)” value with CMV IgG-positive sera was 90%.

Consider “ala tyr lys phe glu gln pro thr leu thr phe gly ala gly val asn val pro ala gly ala gly ala ala ile leu thr pro thr pro val asn pro ser thr ala pro ala pro ala pro (AYKFGQPTLTFGAGVNVPAGAGAAILTPTPVNPSTAPAPAP) [Peptide 1.13]”, for which the “Reactivity (individual reactivities of particularly reactive peptides with the assayed group of CMV IgG-positive sera, in percent)” value with CMV IgG-positive sera came to 90%.

B1: recombinant protein XP1: recombinant protein section, amino acid 718-880 of HCMV protein pp150 (protein)
chain: DPRFTDTLVDITDTETSAKPPVTTAYKFEQPTLTFGAGVNVPAGAGAAILTPTPVNPSTAPAPAPTPTFAGTQTPVNGNSPWAPTAPLPGDMNPANWPRERAWALKNPHLAYNPFRMPTTSTASQNTVSTTPRRPSTPRAAVTQTASRDAADEVWALRDQTA
With B1, the “immunological reaction of monoclonal antibody 87-55/02 with protein” value in experiment [1] is “reacts”.

B2: HCMV protein pp150: HCMV protein pp150 (protein, UniProt P08318 1-1048, looked up)
Large structural …: MSLQFIGLQRRDVVALVNFLRHLTQKPDVDLEAHPKILKKCGEKRLHRRTVLFNELMLWLGYYRELRFHNPDLSSVLEEFEVRCVAVARRGYTYPFGDRGKARDHLAVLDRTEFDTDVRHDAEIVERALVSAVILAKMSVRETLVTAIGQTEPIAFVHLKDTEVQRIEENLEGVRRNMFCVKPLDLNLDRHANTALVNAVNKLVYTGRLIMNVRRSWEELERKCLARIQERCKLLVKELRMCLSFDSNYCRNILKHAVENGDSADTLLELLIEDFDIYVDSFPQSAHTFLGARSPSLEFDDDANLLSLGGGSAFSSVPKKHVPTQPLDGWSWIASPWKGHKPFRFEAHGSLAPAAEAHAARSAAVGYYDEEEKRRERQKRVDDEVVQREKQQLKAWEERQQNLQQRQQQPPPPARKPSASRRLFGSSADEDDDDDDDEKNIFTPIKKPGTSGKGAASGGGVSSIFSGLLSSGSQKPTSGPLNIPQQQQRHAAFSLVSPQVTKASPGRVRRDSAWDVRPLTETRGDLFSGDEDSDSSDGYPPNRQDPRFTDTLVDITDTETSAKPPVTTAYKFEQPTLTFGAGVNVPAGAGAAILTPTPVNPSTAPAPAPTPTFAGTQTPVNGNSPWAPTAPLPGDMNPANWPRERAWALKNPHLAYNPFRMPTTSTASQNTVSTTPRRPSTPRAAVTQTASRDAADEVWALRDQTAESPVEDSEEEDDDSSDTGSVVSLGHTTPSSDYNNDVISPPSQTPEQSTPSRIRKAKLSSPMTTTSTSQKPVLGKRVATPHASARAQTVTSTPVQGRLEKQVSGTPSTVPATLLQPQPASSKTTSSRNVTSGAGTSSASSARQPSASASVLSPTEDDVVSPATSPLSMLSSASPSPAKSAPPSPVKGRGSRVGVPSLKPTLGGKAVVGRPPSVPVSGSAPGRLSGSSRAASTTPTYPAVTTVYPPSSTAKSSVSNAPPVASPSILKPGASAALQSRRSTGTAAVGSPVKSTTGMKTVAFDLSSPQKSGTGPQPGSAGMGGAKTPSDAVQNILQKIEKIKNTEE
With B2, the “immunological reaction of monoclonal antibody 87-55/02 with protein” value in experiment [1] was “unambiguous immunological reaction”.
